# Results taken from patent US10292989B2, “General anesthetics that are not neurotoxic” (University of Virginia Patent Foundation, priority 2014, dated 2019).
# Tests used:
# adult naïve rats = experiment: Thermal paw withdrawal latency after i.t. injection in naive rats; format: in vivo, rat
# Experimental: a. […] We began by studying the role of postsynaptic T-channels in DH neurons using current-clamp recording from unidentified lamina I-II DH neurons in spinal cord slices in vitro. To exclude synaptic currents, our external solution contained 20 μM picrotoxin, 50 μM d-APV and 5 μM NBQX to block inhibitory and excitatory synaptic currents, respectively. We first injected −300 pA of current via the recording electrode for 500 ms, which hyperpolarized the resting membrane potential (RMP) and allowed T-channels to recover from inactivation. This protocol served to assess input resistance (Rin) and to evoke rebound action potential (AP) firing. The top line in FIG. 3A depicts the protocol of current injection while bottom traces represent membrane responses. […] To investigate the possible role of T-channels in spinal nociceptive transmission in vivo, we used intrathecal (i.t.) injections and measured thermal nociceptive responses to noxious heat in adult naïve rats using methods as we described elsewhere (Messinger et al., 2009; Obradovic et al., 2014, PLoS ONE 9(4): e91467. doi:10.1371/journal.pone.0091467). For i.t. injections, rats were briefly anesthetized with 1.5-2% isoflurane and thermal paw withdrawal latencies (PWLs) were measured starting from 30 minutes following injection. […]
# rats [1] = experiment: Sensorimotor tests (inclined plane, platform, ledge); format: in vivo, rat; conditions: 16 μg i.t., 60 min after injection
# Experimental: b. 3β-OH induces potent dose-dependent spinally-mediated analgesia in naïve rats. To assess its potential for spinally mediated analgesia, we injected 4 escalating doses of 3β-OH i.t. (from 0.003 to 16 μg) dissolved in 50 μL of vehicle (15% β-cyclodextrin) and measured thermal PWLs at 30 minutes intervals up to 150 minutes after injections. […] The analgesic effect was long-lasting, with higher doses of 3β-OH increasing PWLs by about 25-30% at 150 minutes post-injections. Note that PWLs remained stable in both paws during injections of vehicle (red lines). We also considered the possibility that i.t. injected 3β-OH may non-specifically affect performance by decreasing motor strength and/or coordination. […] Rats (n=6), were tested using an inclined plane, platform, and ledge before injection of the highest dose of 3β-OH (16 μg i.t.) and at 60 min after injection, corresponding to the time of maximal analgesia (FIG. 4).
# [2] = system: activated caspase-3 in developing brain; experiment: Activated caspase-3 staining of vulnerable brain regions in PND7 rat pups
# rat pups (PND7) [3] = experiment: Loss of righting reflex (LORR) in PND7 rat pups, i.p.
# NMDA currents = conditions: cited from earlier work
# [4] = biological target: T1, recombinant human Cav2.3 channels (Homo sapiens, UniProt Q15878); experiment: Recombinant human Cav2.3 currents in HEK 293 cells; format: cell-based; conditions: HEK293, read-out: inhibition of recombinant Cav2.3 currents (of control pre-drug values)
# T1 construct: expressed in transfected cells
# T1 sequence (Q15878 whole entry): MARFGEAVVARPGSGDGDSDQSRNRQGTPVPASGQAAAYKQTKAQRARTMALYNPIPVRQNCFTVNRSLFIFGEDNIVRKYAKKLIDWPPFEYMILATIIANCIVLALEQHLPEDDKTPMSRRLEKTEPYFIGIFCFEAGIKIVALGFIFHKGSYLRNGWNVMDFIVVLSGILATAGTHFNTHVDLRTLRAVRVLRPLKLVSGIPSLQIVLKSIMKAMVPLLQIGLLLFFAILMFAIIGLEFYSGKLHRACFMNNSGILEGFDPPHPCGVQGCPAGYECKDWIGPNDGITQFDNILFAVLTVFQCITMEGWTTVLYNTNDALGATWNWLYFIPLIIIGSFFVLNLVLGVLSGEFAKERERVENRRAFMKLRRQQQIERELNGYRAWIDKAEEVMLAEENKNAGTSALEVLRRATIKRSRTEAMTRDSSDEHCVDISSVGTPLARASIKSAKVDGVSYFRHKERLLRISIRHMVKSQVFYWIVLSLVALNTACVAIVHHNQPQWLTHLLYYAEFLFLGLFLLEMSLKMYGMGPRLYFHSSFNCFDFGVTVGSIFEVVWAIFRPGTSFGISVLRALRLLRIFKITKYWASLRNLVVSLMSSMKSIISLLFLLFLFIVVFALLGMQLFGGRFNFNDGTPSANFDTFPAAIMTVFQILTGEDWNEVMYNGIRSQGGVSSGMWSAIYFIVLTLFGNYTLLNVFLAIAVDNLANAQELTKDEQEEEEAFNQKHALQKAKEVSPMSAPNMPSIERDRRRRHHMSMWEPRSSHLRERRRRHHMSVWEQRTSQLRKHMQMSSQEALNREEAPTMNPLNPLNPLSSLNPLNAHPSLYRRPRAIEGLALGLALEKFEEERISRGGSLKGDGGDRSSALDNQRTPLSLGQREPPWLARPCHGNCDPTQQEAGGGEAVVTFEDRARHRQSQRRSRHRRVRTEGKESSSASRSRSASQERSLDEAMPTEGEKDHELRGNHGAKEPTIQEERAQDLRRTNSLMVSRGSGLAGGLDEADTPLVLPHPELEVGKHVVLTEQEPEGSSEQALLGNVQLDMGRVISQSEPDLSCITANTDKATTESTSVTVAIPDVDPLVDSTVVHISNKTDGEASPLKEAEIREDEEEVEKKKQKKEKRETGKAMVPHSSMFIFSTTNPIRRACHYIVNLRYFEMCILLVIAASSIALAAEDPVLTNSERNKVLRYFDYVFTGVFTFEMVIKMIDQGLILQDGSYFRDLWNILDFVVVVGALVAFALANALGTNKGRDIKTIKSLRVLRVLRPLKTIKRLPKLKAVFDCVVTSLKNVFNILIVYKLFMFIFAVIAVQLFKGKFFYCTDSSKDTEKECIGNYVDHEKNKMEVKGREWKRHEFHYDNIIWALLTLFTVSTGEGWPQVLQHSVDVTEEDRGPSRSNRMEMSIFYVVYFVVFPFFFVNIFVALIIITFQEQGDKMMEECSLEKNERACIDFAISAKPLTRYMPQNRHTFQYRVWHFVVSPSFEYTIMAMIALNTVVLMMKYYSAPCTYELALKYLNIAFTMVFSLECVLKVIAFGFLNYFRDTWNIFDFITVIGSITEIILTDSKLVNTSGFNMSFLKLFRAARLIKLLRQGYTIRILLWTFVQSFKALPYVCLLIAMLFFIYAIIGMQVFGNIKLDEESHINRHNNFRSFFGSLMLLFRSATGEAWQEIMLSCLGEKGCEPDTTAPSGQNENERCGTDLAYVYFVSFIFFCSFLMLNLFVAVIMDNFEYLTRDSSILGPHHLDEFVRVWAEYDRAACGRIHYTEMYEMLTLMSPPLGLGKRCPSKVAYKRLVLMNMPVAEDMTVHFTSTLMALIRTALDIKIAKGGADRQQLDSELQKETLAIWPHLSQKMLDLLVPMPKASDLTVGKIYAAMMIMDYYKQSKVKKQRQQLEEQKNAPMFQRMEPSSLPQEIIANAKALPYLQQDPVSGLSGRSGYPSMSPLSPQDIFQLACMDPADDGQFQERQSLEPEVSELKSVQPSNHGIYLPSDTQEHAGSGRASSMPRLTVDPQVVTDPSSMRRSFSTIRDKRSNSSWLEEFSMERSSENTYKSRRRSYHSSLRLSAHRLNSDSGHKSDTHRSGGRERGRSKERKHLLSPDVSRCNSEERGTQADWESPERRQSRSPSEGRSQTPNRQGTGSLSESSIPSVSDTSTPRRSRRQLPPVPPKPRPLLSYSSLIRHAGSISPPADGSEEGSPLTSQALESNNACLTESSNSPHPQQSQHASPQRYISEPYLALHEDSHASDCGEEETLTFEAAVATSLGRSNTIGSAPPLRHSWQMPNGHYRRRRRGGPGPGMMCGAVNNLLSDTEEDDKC
# T1 sequence (P54284 whole entry partner): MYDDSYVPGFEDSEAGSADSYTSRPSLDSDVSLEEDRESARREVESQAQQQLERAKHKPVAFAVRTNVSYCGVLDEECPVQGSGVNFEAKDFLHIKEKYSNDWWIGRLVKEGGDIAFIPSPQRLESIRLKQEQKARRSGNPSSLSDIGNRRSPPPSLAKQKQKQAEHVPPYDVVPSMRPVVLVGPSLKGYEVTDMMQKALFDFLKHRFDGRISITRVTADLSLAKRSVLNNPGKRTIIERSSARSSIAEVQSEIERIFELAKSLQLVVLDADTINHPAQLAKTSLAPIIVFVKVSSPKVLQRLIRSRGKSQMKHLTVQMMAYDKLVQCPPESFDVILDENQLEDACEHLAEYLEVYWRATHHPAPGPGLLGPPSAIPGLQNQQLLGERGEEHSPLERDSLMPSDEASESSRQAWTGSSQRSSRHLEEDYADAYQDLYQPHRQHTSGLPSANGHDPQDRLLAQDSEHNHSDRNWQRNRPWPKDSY
# Text: Here, we examined the sensitivity of recombinant human Cav2.3 channels stably expressed in human embryonic kidney (HEK) 293 cells to 3β-OH.
# [5] = Daily weight gain after exposure at PND7; format: in vivo, rat; conditions: 3β-OH at 10 mg/kg, ketamine at 40 mg/kg, treated PND 7
# Experimental: (§1) To assess cognitive abilities of our rats we tested their spatial working memory using the 8-arm radial arm maze test (RAM). We began by comparing the overall appearance and daily weight of rats in each group (saline, cyclodextrin, 3β-OH at 10 mg/kg and ketamine at 40 mg/kg) since nutritional status and general state of health are critically important for cognitive development. Based on their general appearance, rats in different groups could not be distinguished from each other. Similarly, there was no difference in daily weight gain among the groups (FIG. 13A). The time points when the animals were treated (PND 7), food restricted (from PND 45), tested on the RAM (from PND 53) and permitted to eat ad libitum (from PND 70) are indicated on the graph. Food restriction, a necessary component of the RAM learning protocol, was limited so that no rat lost more than 10%-15% of its body weight.
# [6] = system: young adolescent rats (P20-29); experiment: Loss of righting reflex (LORR) in young adolescent rats, i.p.; format: in vivo; conditions: Rattus norvegicus, ip; rats of both sexes P20-29, i.p., 15% β-cyclodextrin; read-out: estimated ED50 for loss of righting reflex (LORR)
# Experimental: (§2) For in vivo experiments, steroids were freshly dissolved in 15% β-cyclodextrin solution and injected intraperitoneally (i.p.) at escalating doses from 5 to 75 mg/kg.
# rats [7] = experiment: 8-arm radial arm maze (RAM) after exposure at PND7; format: in vivo, rat
# Experimental: as §1
# To further scrutinize how the acquisition rate of 3β-OH-treated rats compares to ketamine and vehicle groups, we plotted the cumulative percent scores for ketamine-treated animals relative to recorded cumulative percent scores for other groups, using a percent-percent plot (p-p plot) (FIG. 14). […] The learning behavior of 3β-OH-treated rats is similar to that of sham controls resulting in a large gap (shaded area) in learning ability between ketamine-treated (lower blue dotted line) and 3β-OH-treated animals (upper red dotted line). A slight slowing in the acquisition rate observed with 3β-OH-treated rats when compared to vehicle controls (saline—SAL and cyclodextrin—CYCL) during the mid-portion of training (as discussed in FIG. 13C) is highlighted with rectangles.
# adult monkeys = experiment: Acute anesthetic doses in adult monkeys, cardiac arrhythmias; format: in vivo, monkey; conditions: acute applications of anesthetic doses, preliminary study, data not shown
# Text: Although no preclinical data are currently available on the long-term use of 3β-OH, ECN, and related neuroactive steroids, previous evaluation of the safety of non-steroidal blockers of T-channels such as TTA compounds in dogs has disclosed no cardiovascular side effects.
# [8] = system: T-currents in nucleus reticularis thalami (nRT); conditions: cited from earlier work
# [9] = biological target: T2, T-channels in rat DRG neurons (Rattus norvegicus, UniProt Q9EQ60); conditions: cited from earlier work
# T2 construct: endogenous in cells; host or cells: acutely dissociated rat DRG neurons
# T2 sequence (Q9EQ60 whole entry): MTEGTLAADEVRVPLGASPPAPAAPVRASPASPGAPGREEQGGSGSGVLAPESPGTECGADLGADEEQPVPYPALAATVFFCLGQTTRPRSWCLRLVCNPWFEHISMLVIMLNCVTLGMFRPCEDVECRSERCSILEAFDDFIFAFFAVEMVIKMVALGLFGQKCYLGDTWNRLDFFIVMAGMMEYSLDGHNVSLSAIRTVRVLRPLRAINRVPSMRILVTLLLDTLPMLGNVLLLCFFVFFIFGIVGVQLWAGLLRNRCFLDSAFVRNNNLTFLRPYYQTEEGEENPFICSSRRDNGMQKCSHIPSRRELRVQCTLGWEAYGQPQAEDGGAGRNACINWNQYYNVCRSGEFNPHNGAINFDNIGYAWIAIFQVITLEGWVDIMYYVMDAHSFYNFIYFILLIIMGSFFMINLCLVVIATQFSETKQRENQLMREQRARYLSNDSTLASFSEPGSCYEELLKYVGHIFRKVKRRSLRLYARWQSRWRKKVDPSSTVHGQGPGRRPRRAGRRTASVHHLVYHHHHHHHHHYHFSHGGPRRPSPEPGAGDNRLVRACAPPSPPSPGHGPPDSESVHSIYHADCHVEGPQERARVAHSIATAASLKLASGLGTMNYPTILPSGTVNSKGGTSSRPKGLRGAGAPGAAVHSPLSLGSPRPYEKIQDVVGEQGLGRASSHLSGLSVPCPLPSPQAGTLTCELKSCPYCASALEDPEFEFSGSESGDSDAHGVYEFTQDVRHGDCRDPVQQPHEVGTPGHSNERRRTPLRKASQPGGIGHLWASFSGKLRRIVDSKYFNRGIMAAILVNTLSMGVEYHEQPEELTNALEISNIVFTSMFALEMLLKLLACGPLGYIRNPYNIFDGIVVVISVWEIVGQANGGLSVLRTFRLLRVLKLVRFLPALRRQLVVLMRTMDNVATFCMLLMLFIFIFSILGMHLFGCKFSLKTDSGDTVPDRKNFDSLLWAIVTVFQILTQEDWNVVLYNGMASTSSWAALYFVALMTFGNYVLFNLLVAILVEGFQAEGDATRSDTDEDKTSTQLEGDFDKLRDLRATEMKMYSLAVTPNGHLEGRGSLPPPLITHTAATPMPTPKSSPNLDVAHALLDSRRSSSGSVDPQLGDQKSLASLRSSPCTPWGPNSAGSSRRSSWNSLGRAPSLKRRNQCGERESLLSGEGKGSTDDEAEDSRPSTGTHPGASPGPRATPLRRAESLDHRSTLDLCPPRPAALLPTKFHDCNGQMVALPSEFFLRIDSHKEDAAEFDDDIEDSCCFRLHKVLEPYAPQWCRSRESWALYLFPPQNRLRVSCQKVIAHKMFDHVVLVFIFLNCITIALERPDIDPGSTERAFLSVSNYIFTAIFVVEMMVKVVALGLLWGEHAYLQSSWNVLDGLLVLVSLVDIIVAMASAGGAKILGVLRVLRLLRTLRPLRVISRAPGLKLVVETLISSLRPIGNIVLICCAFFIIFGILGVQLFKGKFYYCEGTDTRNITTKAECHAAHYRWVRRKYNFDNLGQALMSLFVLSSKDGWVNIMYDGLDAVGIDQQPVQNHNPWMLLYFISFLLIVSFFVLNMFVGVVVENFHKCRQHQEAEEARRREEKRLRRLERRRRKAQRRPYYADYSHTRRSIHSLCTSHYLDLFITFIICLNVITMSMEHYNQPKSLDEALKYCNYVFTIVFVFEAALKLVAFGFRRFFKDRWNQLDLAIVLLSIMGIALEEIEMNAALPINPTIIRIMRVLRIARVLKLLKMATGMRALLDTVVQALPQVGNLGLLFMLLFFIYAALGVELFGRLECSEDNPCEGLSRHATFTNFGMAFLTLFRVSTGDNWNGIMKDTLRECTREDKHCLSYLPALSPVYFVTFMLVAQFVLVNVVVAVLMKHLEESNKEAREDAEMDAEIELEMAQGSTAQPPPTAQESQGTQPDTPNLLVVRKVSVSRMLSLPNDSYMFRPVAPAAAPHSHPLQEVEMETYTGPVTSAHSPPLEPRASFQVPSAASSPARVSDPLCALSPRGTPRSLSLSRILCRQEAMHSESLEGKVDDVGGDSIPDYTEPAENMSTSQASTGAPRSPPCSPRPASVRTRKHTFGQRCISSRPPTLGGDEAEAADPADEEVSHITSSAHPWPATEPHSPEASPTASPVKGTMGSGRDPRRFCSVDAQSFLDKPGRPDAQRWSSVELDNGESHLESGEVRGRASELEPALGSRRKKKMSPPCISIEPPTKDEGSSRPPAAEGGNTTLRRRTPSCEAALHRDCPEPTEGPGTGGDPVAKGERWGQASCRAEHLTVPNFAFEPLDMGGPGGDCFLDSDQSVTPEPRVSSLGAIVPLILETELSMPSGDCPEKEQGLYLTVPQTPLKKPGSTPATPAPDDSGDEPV
# rat pups (PND7) [10] = experiment: Lethality (LD50) in PND7 rat pups; conditions: LD50 vs ED50 for LORR
# [11] = Lethality (LD50) in PND7 rat pups; conditions: rat, in vivo, ip
# GABAA currents = conditions: cited from earlier work
# [12] = system: adult female C57Bl/6 mice; experiment: Loss of righting reflex (LORR) in adult female C57Bl/6 mice, i.p.; format: in vivo, mouse
# Experimental: as §2
# [13] = system: rats with hind paw incision; experiment: Thermal hyperalgesia after plantar skin and deep tissue incision (PWL); format: in vivo, rat
# Experimental: In order to study the potential role of neuroactive steroids in perioperative analgesia we used a model of a plantar incision of skin and deep tissue in the hind paw of rats. Starting 2 hours after operation, thermal hyperalgesia to nociceptive heat stimuli was assessed measuring thermal PWLs. As depicted in FIG. 5, thermal hyperalgesia is profound up to two days after surgery as evidenced by attenuated PWLs in incised (right) paws by about 70% when compared to unincised (left) paws in the same animals. This gradually resolved and returned to near preoperative baseline values within 7 days. Note that thermal PWLs in unincised paws remained stable during this period.
# Next, we examined the ability of 3β-OH to influence thermal hyperalgesia in this rat model of perioperative pain. […] We applied the same dose of steroid or vehicle i.t. at 2, 24 and 48 hours after surgery and measured thermal PWLs in both paws (unincised paws, top panel of FIG. 6; incised paws, bottom panel of FIG. 6) at 30 minute intervals from 30-180 minutes after surgery in order to assess the time course and possible tolerance to any analgesic and antihyperalgesic effect of 3β-OH. FIG. 6 summarizes average results from multiple animals (6-13 per group). It is noteworthy that 3β-OH had little effect on thermal PWLs when compared to vehicle in incised paws when applied 2 hours after incision (bottom panel, filled round symbols) while in contralateral unincised paws (top panel, filled round symbols) the same dose induced analgesia at the 30 and 60 minute time points as evidenced by increased PWLs when compared to vehicle injections (top panel, filled circles). Furthermore, subsequent i.t. injections of 3β-OH at 24 hours (open squares) and 48 hours (filled triangles) induced long-lasting progressive anti-hyperalgesia in incised paws (bottom panel) with return of thermal PWLs to near baseline pre-incisional values measured at 180 minutes after injection (48 hours group). For example, at 48 hours post-surgery the average PWL of incised paws at 180 minutes post vehicle injection was about 4 seconds, while at 180 minutes post steroid injection PWLs were prolonged to about 9 seconds and approached pre-incisional values. In contrast, in unincised paws the same injections of 3β-OH induced analgesia of similar magnitude to the analgesia produced when steroid was injected 2 hours post-surgery, measuring in average 14-15 seconds on thermal PWLs (top panel).
# We next tested the idea that locally applied 3β-OH may abolish thermal hyperalgesia after paw incision. For these experiments we first obtained baseline (pre-incision) thermal PWLs (about 10 seconds) and repeated measurements 2 hours after surgery (about 2.5 seconds). We then injected (arrow on FIG. 7A) directly into the incised paw either 16 μg or 48 μg of 3β-OH in 100 μl of saline that was pH adjusted to 7.4 (n=6 rats in each group). We recorded PWLs for three consecutive days after injections.
# Note that PWLs in noninjected (unincised) paws (black squares and red diamonds) remained stable indicating lack of any systemic effect. […] For these experiments depicted on FIG. 7B, we first obtained pre-incision PWLs, and then injected 16 μg of 3β-OH repeatedly at the following time points: 2 hours, day 1, 2, 3 and 5 after post-surgery (n=6 rats). As shown on FIG. 7B (red symbols) repeated injections of steroid induced progressive anti-hyperalgesia from day 1 to day 5 post surgery with increase in PWLs from 50-90% when compared to PWLs in incised paws injected with vehicle (*, p<0.05; **, p<0.01; ***, p<0.001).
structure (smiles),measurement,setting,value
"C[C@]12CC[C@H](O)C[C@H]1CC[C@@H]1[C@@H]2CC[C@]2(C)[C@@H](C#N)CC[C@@H]12 [3β-OH, (3β,5β,17β)-3-hydroxyandrostane-17-carbonitrile]",prolongation of PWLs over pre-injection baseline,"adult naïve rats; i.t. 0.003 to 16 μg, 60 minutes post-injection",up to 80%
same,increase of PWLs,"adult naïve rats; i.t., higher doses, 150 minutes post-injection",25-30%
same,sensorimotor responses after vs before injection,rats [1],did not differ significantly
same,apoptotic (caspase-3) activation compared with vehicle,"[2]; 5 mg/kg i.p. every hour, six doses, all examined regions except subiculum",did not cause significant apoptotic activation
same,"caspase-3 activation, twice higher dose compared with lower dose","[2]; 10 mg/kg vs 5 mg/kg i.p., 6 doses hourly",small increase
same,caspase-3 activation at higher dose compared with vehicle,"[2]; 3β-OH 10 mg/kg or ketamine 40 mg/kg i.p., 6 doses hourly, 3β-OH: except subiculum",no significant increase
same,calculated EC50 (duration of LORR),"rat pups (PND7) [3]; PND7 rat pups, i.p.",34.5 ± 3.7 mg/kg
same,ED50,"rat pups (PND7) [3]; Rattus norvegicus, ip, read-out: calculated ED50 for LORR",2.9 ± 0.28 mg/kg
same,equipotent dose comparable to ketamine 40 mg/kg,"rat pups (PND7) [3]; i.p., based on LORR",10 mg/kg
same,equipotent single dose comparable to ketamine 20 mg/kg,"rat pups (PND7) [3]; i.p., based on LORR",5 mg/kg
same,effect on postsynaptic NMDA currents,NMDA currents,devoid of any direct effects
same,inhibition at 3 µM,[4],38 ± 4%
same,daily weight gain among the groups,[5],no difference
same,ED50,[6],16 ± 0.4 mg/kg
same,days required to reach learning criterion in RAM,"rats [7]; 3β-OH at 10 mg/kg, ketamine at 40 mg/kg at PND 7, tested from PND 53",indistinguishable from vehicle animals
same,rats reaching criterion in the allotted time,rats [7]; p-p plot,100%
same,rats that had reached criterion at the same point of training (p-p plot),"rats [7]; rat, in vivo",roughly half
same,cardiac arrhythmias,adult monkeys,did not notice cardiac arrhythmias
same,IC50,[8],2000 nM
same,maximal block of T-current,[9]; DRG neurons,100%
same,IC50,"[9]; acutely dissociated DRG cells, read-out: IC50, block of T-currents in DRG cells",3000 nM
same,therapeutic index,rat pups (PND7) [10],about 22
same,LD50,[11],61.9 ± 4.6 mg/kg
same,effect on GABAA currents,GABAA currents,devoid of any direct effects
same,duration of LORR,[12]; 75 mg/kg dose,up to 50 min
same,ED50,"[12]; Mus musculus, ip, adult female C57Bl/6 mice",46 ± 2 mg/kg
same,increase in PWLs compared to incised paws injected with vehicle,"[13]; 16 μg i.pl. repeated at 2 hours, day 1, 2, 3 and 5, day 1 to day 5",50-90%
same,thermal PWL of incised paw,"[13]; 16 μg i.pl. single injection, day 1 after incision",about 6 seconds
same,thermal PWL of incised paw vs vehicle,"[13]; 16 μg i.pl. single injection, day 2",not significantly different
same,effect on thermal PWLs vs vehicle in incised paws,[13]; 16 μg i.t. applied 2 hours after incision,little effect
same,thermal PWL of unincised paws,[13]; 16 μg i.t. at 24 and 48 hours post-surgery,14 to 15 s
same,thermal PWL of incised paws,"[13]; 16 μg i.t., 48 hours post-surgery, 180 minutes post injection, vehicle about 4",about 9 seconds
same,thermal PWL of incised paw,"[13]; 48 μg i.pl. single injection, day 1 post incision",about 6.5 seconds
same,thermal PWL of incised paw,"[13]; 48 μg i.pl. single injection, day 2 post incision",about 7 seconds
same,time after surgery for which hyperalgesia is reduced,[13]; data not shown,at least 48 hours
